Data from publication PMC7321408, “One-Pot Multicomponent Synthesis and Bioevaluation of Tetrahydroquinoline Derivatives as Potential Antioxidants, α-Amylase Enzyme Inhibitors, Anti-Cancerous and Anti-Inflammatory Agents” (Molecules, 2020).
In brackets after ≈: the same amount, converted by molar mass.

Tests used:
raw macrophages = experiment: MTT cytotoxicity against raw macrophages; format: cell-based, albino rats; conditions: mean ± SEM, n = 3
In short: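 Peritoneal macrophages from albino rats were treated for 24 h at 37 °C, 5% CO2 with test compounds at 100, 50, 10 and 1 µM or vehicle, from DMSO stocks. MTT was then added for 2 h, formazan dissolved in DMSO and absorbance read at 570 nm. % viability = blank-corrected sample over blank-corrected control ×100.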

[1] = DPPH free radical scavenging assay; conditions: mean ± SEM, n = 3; for IC50 (DPPH radical scavenging): concentration to scavenge 50% of the DPPH radicals
In short: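 Compounds at 200, 66.6, 22.2 and 7.4 µg/mL were mixed with DPPH radical, with DMSO as the negative control. Absorbance was read at 630 nm, and % scavenging was calculated as (1 − Abs/Abc) × 100 against the control.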

[2] = tested on: carrageenan-induced paw edema; experiment: Carrageenan-induced paw edema (in vivo anti-inflammatory activity); parameters: species or system BALB/C albino mice; unit not given beside the values; conditions: 10 mg/kg, mice, n = 5
Protocol: At 7–8 weeks old, male BALB/C albino mice (29–35 g), were purchased from The National Institute of Health (NIH), Islamabad, Pakistan. Five animals were housed per group and placed in a controlled temperature and humidity-controlled room (22 °C and 66 ± 5%, respectively) in a 12 h light–dark cycle and provided with water and food ad libitum. Ethical approval was taken from the bio-ethical committee of Quaid-I-Azam University (Approval No. BEC-FBS-QAU2018-119) and all protocols were conducted following the Ethical Guide to the Code of Practice for the Housing and Care of Animals Act 1986 (ARRIVE (Animal Research: Reporting In Vivo Experiments) guidelines). The anti-inflammatory activity of the synthesized compounds was evaluated by using the carrageenan-induced rat paw edema assay. To determine the dose response of tetrahydroquinoline derivatives, animals were first given a dose of 0.1, 1 and 10 mg/kg against 100 µL carrageenan (1% solution in normal saline)/paw. Treatment was given 60 min before carrageenan injection. Readings were taken at 4 h post carrageenan injection. The in vivo anti-inflammatory activity was performed following the procedure described by Koksal, et al. in 2017. Paw edema was induced by injecting 100 µL of 1% sterile carrageenan solution into the right hind paw of mice. Synthesized compounds (10 mg/kg), vehicle (saline with 2% DMSO) and drug (acetylsalicylic acid, ASA 10 mg/kg) were administered to the mice orally by gastric intubation 60 min before injecting carrageenan into the right hind paw. The decrease in edema was measured by vernier calipers every 2 h.

α-amylase enzyme = experiment: α-Amylase enzyme inhibitory assay; format: biochemical; conditions: 200 µg/mL
Protocol: An in vitro α-amylase enzyme inhibitory assay was performed by the standard protocol. Four milligrams per 1 mL of sample was prepared in DMSO. In each well of a 96-well plate, synthetic compounds were added to a final concentration of 200 µg/mL. To this, 15 μL phosphate buffer, […] α-amylase enzyme and 40 μL starch solution were added stepwise. The microplate was incubated at 50 °C for 30 min. […] The formula used to calculate the percent enzyme inhibition is:% Enzyme inhibition = [(As − An) ÷ (Ab − An] × 100
As = sample’s absorbance; An = negative’s absorbance; Ab = blank’s absorbance

[3] = Phosphomolybdenum-based total antioxidant capacity (TAC)
Protocol: In the presence of an antioxidant, the phosphomolybdate ion gets reduced and a green phosphate–molybdate complex is formed, which is analyzed spectrophotometrically.
The total antioxidant capacity was determined by using the phosphomolybdenum-based method. The method is based on the reduction of Mo (VI) to Mo (V), leading to the formation of a green-colored phosphate–molybdenum complex that gives absorption at 630 nm. In 96-well plates, 20 µL of the sample was added with 180 µL TAC reagents in it and incubated at 95 °C for 90 min in a water bath and cooled at room temperature. The results were calculated as µg AAE/mg.

Structure (SMILES)	IC50 (raw macrophages) [µM]	% DPPH Scavenging Activity ([1]; 7.4 µg/mL) [%]	% DPPH Scavenging Activity ([1]; 22.22 µg/mL) [%]	% DPPH Scavenging Activity ([1]; 66.66 µg/mL) [%]	% DPPH Scavenging Activity ([1]; 200 µg/mL) [%]	IC50 (DPPH radical scavenging) [1] [µg/mL]	Paw thickness ([2]; 0 h after carrageenan injection)	Paw thickness ([2]; 2 h after carrageenan injection)	Paw thickness ([2]; 4 h after carrageenan injection)	Paw thickness ([2]; 6 h after carrageenan injection)	% inhibition of α-amylase enzyme (α-amylase enzyme) [%]	Total antioxidant capacity (TAC) [3] [µg/AAE]
c1ccc2c(c1)CCCN2CN1CCCCC1 [SF1, 1-(Piperidine-1-ylmethyl) 1,2,3,4-tetrahahydroquinoline]	6.23 ± 0.01	11.91 ± 0.32	27.76 ± 0.11	50.08 ± 0.18	62.45 ± 0.12	44.22 ± 0.25 (≈ 192 µM)	2.06 ± 0.07	2.13 ± 0.03	2.18 ± 0.06	2.25 ± 0.05	–	–
CN1CCN(CN2CCCc3ccccc32)CC1 [SF5]	–	7.76 ± 0.23	17.39 ± 0.16	28.77 ± 0.14	45.24 ± 0.28	56.63 ± 0.32 (≈ 231 µM)	–	–	–	–	97.37	285.46 ± 2.1
c1ccc(N(CN2CCCc3ccccc32)c2ccccc2)cc1 [SF7, N-((3,4-dihydroquinolin-1(2H)-yl)methyl)-N-phenylaniline]	–	9.28 ± 0.13	26.76 ± 0.17	50.48 ± 0.054	64.48 ± 0.18	44.4 ± 0.29 (≈ 141 µM)	–	–	–	–	88.67	242.77 ± 2.31
